Literature values in the CATMoS acute toxicity set (Mansouri et al. 2021).
“And” between values parts separate entries of the source, which are not always exact repeats. Identical values can stand only once.

Test: rat acute oral toxicity
Conditions: in vivo

C[C@H]1OC(O[C@H]2[C@@H](O)CC(O[C@H]3[C@@H](O)CC(O[C@H]4CC[C@@]5(C)[C@H](CC[C@@H]6[C@@H]5CC[C@]5(C)[C@@H](C7=CC(=O)OC7)[C@@H](OC=O)C[C@]65O)C4)O[C@@H]3C)O[C@@H]2C)C[C@H](O)[C@@H]1O (some centres not stated)
LD50: 30 mg/kg

Clc1cccc2ccccc12
LD50: 2200 mg/kg and 1540 mg/kg

Oc1ccc2ccccc2c1
LD50: 1960 mg/kg and 2120 mg/kg

NS(=O)(=O)c1ccc2nc(C(F)(F)F)[nH]c2c1
LD50: 21 mg/kg

C(=NC1CCCCC1)=NC1CCCCC1
LD50: 400 mg/kg

Cc1c(Cl)ccc2[nH]c(C(F)(F)F)nc12
LD50: 22 mg/kg

CN(C)C(=O)c1ccccc1O
LD50: 2300 mg/kg

CN(C(=O)C[N+](C)(C)C)C(=O)Oc1cccc2c1OC(C)(C)C2
LD50: 33.6 mg/kg

CCNc1nc(NCC)nc(SC)n1
LD50: 750 mg/kg

CC(C)NCC(O)COc1ccc(CCOCC2CC2)cc1 (configuration not stated)
LD50: 998 mg/kg

CC(=O)C1(O)CCC(c2ccccc2)CC1 (configuration not stated)
LD50: 8000 mg/kg

O=C1OC(OC(=O)c2cccnc2Nc2cccc(C(F)(F)F)c2)c2ccccc21 (configuration not stated)
LD50: 12000 mg/kg

O=C(O)c1cc(C(=O)O)cc(S(=O)(=O)O)c1
LD50: 2600 mg/kg and 6450 mg/kg

Nc1cc(-c2ccncc2)c[nH]c1=O
LD50: 102 mg/kg

CCOP(=S)(OCC)SCSc1ccc(Cl)c(Cl)c1
LD50: 89 mg/kg

OCP(CO)CO
LD50: 178 mg/kg

COC(F)=C(C(F)(F)F)C(F)(F)F
LD50: 1070 mg/kg

CC(O)Cn1cnc2c1c(=O)n(C)c(=O)n2C (configuration not stated)
LD50: 460 mg/kg

COc1ccc(SP(=S)(CCl)OC(C)C)cc1 (configuration not stated)
LD50: 108 mg/kg

Clc1ccc(C(OCCN2CCOCC2)c2ccccc2)cc1 (configuration not stated)
LD50: 710 mg/kg

FC(F)(F)c1nc2c(Br)c(Br)c(Br)c(Br)c2[nH]1
LD50: 5.02 mg/kg

COc1cc(OC)cc(OCC(O)CO)c1 (configuration not stated)
LD50: 2100 mg/kg

COCCCO
LD50: 5710 mg/kg

N=C(NN=Cc1ccc(Cl)cc1)NN=Cc1ccc(Cl)cc1
LD50: 1350 mg/kg

Cc1c[nH]c2ccccc12
LD50: 3450 mg/kg

COc1c2occc2cc2ccc(=O)oc12
LD50: 791 mg/kg

CC(C)c1ccc(NC(=O)N(C)C)cc1
LD50: 1830 mg/kg

COc1ccnc(CS(=O)c2nc3cc(OC(F)F)ccc3[nH]2)c1OC (configuration not stated)
LD50: 747 mg/kg

C=C(C)CC#N
LD50: 540 mg/kg

CC(=O)C(Cl)C(=O)OC(C)c1ccccc1 (configuration not stated)
LD50: 880 mg/kg

CCOC(=O)Cc1ccc(-c2ccccc2)cc1
LD50: 385 mg/kg

COc1cc(-c2ccc(N)c(OC)c2)ccc1N
LD50: 1920 mg/kg

CC(=O)CNC(C)(C)Cc1ccccc1
LD50: 225 mg/kg

Cc1cncc(C)n1
LD50: 880 mg/kg

O=CC(Cl)(Cl)Cl
LD50: 480 mg/kg

CNC(=O)Oc1cccc2ccc(C)nc12
LD50: 120 mg/kg

C[N+]1(CCC(O)(c2ccccc2)C2CCCCC2)CCCC1 (configuration not stated)
LD50: 984 mg/kg and 985 mg/kg

CCCCCCCN1C(C)=CSC1=Cc1scc(C)[n+]1CCCCCCC
LD50: 460 mg/kg

CCCCC(CC)CNC(=O)CC(C)OC(=O)CCC(=O)O (configuration not stated)
LD50: 12100 mg/kg

Cc1ncc(CSSCc2cnc(C)c(O)c2CO)c(CO)c1O
LD50: 6000 mg/kg

CCC(Br)(CC)C(=O)OCC(Br)(Br)Br
LD50: 2500 mg/kg

COC(=O)C(=O)C(O)=C(O)OC
LD50: 8000 mg/kg

CCCCCCC(=O)OCCOCCOCCOCCOC(=O)CCCCCC
LD50: 25000 mg/kg

Cn1c(=O)c2c(ncn2CCO)n(C)c1=O
LD50: 710 mg/kg

Oc1ccccc1-c1ccccc1
LD50: 656 mg/kg and 1050 mg/kg

CC(=O)Oc1ccc(Br)cc1C(=O)O
LD50: 1130 mg/kg

CCN(CC)CCOc1ccc(C(=C(Cl)c2ccccc2)c2ccccc2)cc1
LD50: 5750 mg/kg

COc1cc2c(cc1OC)C(CCc1ccc(Cl)cc1)N(C)CC2 (configuration not stated)
LD50: 400 mg/kg

CC(C)NC(=S)NC(C)C
LD50: 450 mg/kg

CC(=O)C(NC(=O)C(C)C(O)C(C)NC(=O)C(NC(=O)c1nc(C(CC(N)=O)NCC(N)C(N)=O)nc(N)c1C)C(OC1OC(CO)C(O)C(O)C1(C)OC1OC(CO)C(O)C(O)(C(N)=O)C1O)c1cnc[nH]1)C(=O)NCCC1=NC(c2nc(C(N)=O)cs2)CS1 (configuration not stated)
LD50: 649 mg/kg

O=c1occo1
LD50: 300 mg/kg

CS(=O)(=O)c1ccc(-c2cn3ccccc3n2)cc1
LD50: 3710 mg/kg

CCOP(=S)(OCC)SCN1C(=O)c2ccccc2C1=O
LD50: 43 mg/kg

C=CC1OCCO1
LD50: 84.7 mg/kg

CC(=O)Nc1ccc(C(=O)CCl)cc1
LD50: 2150 mg/kg

CCN(CC)C(=O)c1cccc(OC)c1O
LD50: 2080 mg/kg

CC(C)COCC(C)O (configuration not stated)
LD50: 4290 mg/kg

C=CC(=O)OCCOCCOCCOCCOC(=O)C=C
LD50: 813 mg/kg

CC(N)CNCCCO (configuration not stated)
LD50: 5660 mg/kg

O=Cc1ccc(Cl)cc1
LD50: 1580 mg/kg

CCCc1ccc(C)cc1O
LD50: 730 mg/kg

CCSC(=S)N(C)C
LD50: 550 mg/kg

CC[n+]1c(C=C2Sc3ccccc3N2C)ccc2ccccc21
LD50: 2240 mg/kg

NC(=S)Nc1ccc(-c2ccc(NC(N)=S)cc2)cc1
LD50: 200 mg/kg

CCCCCCCCCCCCCCCCOC(=O)Cc1ccc(N(CCCl)CCCl)cc1
LD50: 100 mg/kg

C=CC(CCC(=O)O)OC(C)=O (configuration not stated)
LD50: 543 mg/kg

CN1C(=O)C2C=CC1c1ccccc12 (configuration not stated)
LD50: 806 mg/kg

O=C=Nc1ccccc1C(F)(F)F
LD50: 7000 mg/kg

ClCC1OC1CCl (configuration not stated)
LD50: 710 mg/kg

CC(C)NP(O)(=S)Oc1cc(Cl)c(Cl)cc1Cl (configuration not stated)
LD50: 31 mg/kg

COc1ccccc1N1CCN(CCCNc2cc(=O)n(C)c(=O)n2C)CC1
LD50: 520 mg/kg

C=C(C)CN(CC)c1c([N+](=O)[O-])cc(C(F)(F)F)cc1[N+](=O)[O-]
LD50: 10000 mg/kg

CCc1cc2c(cc1C(C)=O)C(C)(C)CCC2(C)C
LD50: 260 mg/kg

COc1cc(C(Cl)(Cl)Cl)cc(Cl)n1
LD50: 1500 mg/kg

O=c1n(CCCN2CCN(c3cccc(Cl)c3)CC2)nc2ccccn12
LD50: 690 mg/kg

C=C(C)C(C)=O
LD50: 180 mg/kg

CN=C(O)O/N=C(/C)C(C)(C)[N+](=O)[O-]
LD50: 13 mg/kg

CCOP(=S)(OCC)SC=C(C)SC
LD50: 2.5 mg/kg

CCOC(=O)CS
LD50: 178 mg/kg

CCC(Cl)(Cl)Cl
LD50: 7460 mg/kg

CC(O)C(c1ccccc1)N1CCN(CCOc2ccccc2)CC1 (configuration not stated)
LD50: 250 mg/kg

COC(=O)c1cccc(N=NN(C)C)c1
LD50: 60 mg/kg

N#CC=Cc1ccccc1
LD50: 4150 mg/kg

C[C@H]1C[C@H]2[C@@H]3CCC4=CC(=O)C=C[C@]4(C)[C@@]3(F)[C@@H](O)C[C@]2(C)[C@@]1(O)C(=O)COP(=O)(O)O
LD50: 1880 mg/kg

Nc1ncnc2[nH]cnc12
LD50: 227 mg/kg

CCCCCC1=C(C)CCC1=O
LD50: 2500 mg/kg

CCOC(=O)C(C)(C)Oc1ccc(Cl)cc1
LD50: 940 mg/kg

O=c1[nH]c2ccc(Br)cc2o1
LD50: 1000 mg/kg

CC[C@H]1C2C[C@H]3[C@@H]4N(C)c5ccccc5C45C[C@@H](C2[C@H]5O)N3[C@@H]1O (some centres not stated)
LD50: 290 mg/kg

Cc1ccc(C)c(C)c1C
LD50: 6410 mg/kg

CCCC(=O)c1ccc(N)cc1
LD50: 84 mg/kg

O=C(Cl)c1cccc(S(=O)(=O)Cl)c1
LD50: 1780 mg/kg

COCCN1C(=O)C2C3C=C(C(O)(c4ccccc4)c4ccccn4)C(C3=C(c3ccccc3)c3ccccn3)C2C1=O (configuration not stated)
LD50: 9 mg/kg

CCc1c2c(nc3ccc(OC(=O)N4CCC(N5CCCCC5)CC4)cc13)-c1cc3c(c(=O)n1C2)COC(=O)C3(O)CC (configuration not stated)
LD50: 867 mg/kg

Nc1ccc(S(=O)(=O)c2ccc(N)cc2)cc1
LD50: 1000 mg/kg

N#C[C@H](O[C@@H]1O[C@H](CO)[C@@H](O)[C@H](O)[C@H]1O)c1ccccc1
LD50: 560 mg/kg

CC(C)c1cccc(C(C)(C)O)c1
LD50: 6000 mg/kg

N#CC(C#N)=C(C#N)C#N
LD50: 5 mg/kg

CC(C)C12CCC(C)(CC1)O2
LD50: 3100 mg/kg

C=CCNP(=O)(OC=C(Cl)Cl)OC1CCCCC1 (configuration not stated)
LD50: 100 mg/kg

C[C@@H](NCCc1ccc(O)cc1)[C@@H](O)c1ccc(O)cc1 (racemic)
LD50: 1840 mg/kg

C1COCCOCCOCCOCCO1
LD50: 1410 mg/kg

CCC1Cc2cc(CC(=O)O)ccc2O1 (configuration not stated)
LD50: 1300 mg/kg

C=CC=NNc1ccccc1
LD50: 700 mg/kg

CN(C)C(=O)CCCOC(=O)C(C)(C)Oc1ccc(Cl)cc1
LD50: 2480 mg/kg

CC[N+](CC)(CC)Cc1ccc(C(C)C(C)c2ccccc2)cc1 (configuration not stated)
LD50: 2180 mg/kg

CC=Cc1ccc(OCC)c(O)c1
LD50: 2400 mg/kg

Clc1ccc(CSC(Cn2cncn2)=Nc2ccc(Cl)cc2Cl)cc1
LD50: 2800 mg/kg

COc1ccc(-c2cc(N)c3c(c2O)C(=O)c2c(N)ccc(O)c2C3=O)cc1
LD50: 6380 mg/kg

Cc1cc(C)c(C)c(C)c1
LD50: 5160 mg/kg

C=CC(=O)OCCN=C=O
LD50: 200 mg/kg

Nc1nc2c(Cl)cccc2o1
LD50: 500 mg/kg

Nc1ccc(N)c2c1C(=O)c1ccccc1C2=O
LD50: 5790 mg/kg

CCCCCOC(=O)CCC
LD50: 12200 mg/kg

CN(C)N=Nc1ccc(Br)cc1
LD50: 423 mg/kg

CC(=O)Oc1cc(C(F)(F)F)ccc1C(=O)O
LD50: 402 mg/kg

O=C(OCC=Cc1ccccc1)c1ccccc1
LD50: 4000 mg/kg

COc1cc2c(cc1OC)-c1c(OC)c(OC)cc3c1C(C2)N(C)CC3 (configuration not stated)
LD50: 545 mg/kg

C=CC(=C)CCCC(C)(C)OC(C)=O
LD50: 6300 mg/kg

CC(=O)CCC(=O)O
LD50: 1850 mg/kg

COc1cc(N)c(Cl)cc1C(=O)NC1CCN(CCCOc2ccc(F)cc2)CC1OC (configuration not stated)
LD50: 4170 mg/kg

O=C(CS)OCCOC(=O)CS
LD50: 330 mg/kg

O=c1oc2cc(Cl)ccc2n1CO
LD50: 2800 mg/kg

Nc1nc2ccc(Br)cc2o1
LD50: 500 mg/kg

CCCN(CCC)C(=O)C(CCC(=O)O)NC(=O)c1ccccc1 (configuration not stated)
LD50: 20000 mg/kg and 8200 mg/kg

C[C@H]1O[C@@H](O[C@H]2[C@@H](O)C[C@H](O[C@H]3[C@@H](O)C[C@H](O[C@H]4CC[C@@]5(C)[C@H](CC[C@@H]6[C@@H]5C[C@@H](O)[C@]5(C)[C@@H](C7=CC(=O)OC7)CC[C@]65O)C4)O[C@@H]3C)O[C@@H]2C)C[C@H](O)[C@@H]1O
LD50: 28.3 mg/kg

CCN(CC)CCOCCOC(=O)C(CC)(CC)c1ccccc1
LD50: 183 mg/kg

NCCNc1ccc(N)cc1
LD50: 190 mg/kg

CCOc1ccccc1N1CCN(C(=O)CCC2CCCCC2)CC1
LD50: 2420 mg/kg

CCC(C)N(C(=O)SCc1ccccc1)C(C)CC (configuration not stated)
LD50: 10000 mg/kg

CC(=O)C(C)=Cc1ccccc1
LD50: 4100 mg/kg

N#Cc1ccc(C2CCCc3cncn32)cc1 (configuration not stated)
LD50: 200 mg/kg

CC(=Cc1ccccc1)CC(=O)N1CCOCC1
LD50: 1000 mg/kg

C=C(C)C1CC=C(C)C(=O)C1 (racemic)
LD50: 1640 mg/kg

CN1CCN(CC(=O)N/N=C/c2ccc([N+](=O)[O-])o2)CC1
LD50: 990 mg/kg and 960 mg/kg and 833 mg/kg

CC(Oc1ccc(Oc2ncc(Cl)cc2Cl)cc1)C(=O)N1CCCO1 (configuration not stated)
LD50: 500 mg/kg

CON(C)C(=O)CC(SP(=S)(OC)OC)C(=O)N(C)OC (configuration not stated)
LD50: 14 mg/kg

COC(=O)c1ccc(I)cc1S(=O)(=O)NC(=O)Nc1nc(C)nc(OC)n1
LD50: 2680 mg/kg

O=C1CCc2cc(C=CCCN3CCN(c4ccccc4)CC3)ccc2N1
LD50: 500 mg/kg

COP(=S)(OC)Oc1ccc(C#N)cc1C
LD50: 500 mg/kg

CC(C=O)=Cc1ccco1
LD50: 1400 mg/kg

Nc1ccc(CCNCC(O)c2ccccc2)cc1 (configuration not stated)
LD50: 200 mg/kg
